Measurements: patent publication US8586505B2 (SDS Biotech K. K., priority 2009, dated 2013)
Read-outs that look alike come from different tables or passages of the source.

What was measured:
Type in all cases: in vivo
Sphaerotheca fuliginea = experiment: Test of examining control effect on Sphaerotheca fuliginea (potted cucumber plants); settings: Podosphaera fuliginea, 336 h, 10% wettable powder adjusted to 125 ppm, 15 ml/pot sprayed on potted cucumber plants one day before spray inoculation, assessed after 14 days in greenhouse, read-out: Determination of control effect (preventive value) on Sphaerotheca fuliginea
How it was run: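 Cucumber plants (Sagamihanjiro, 2nd leaf stage) sprayed with 125 ppm compound (from 10% wettable powder), inoculated one day later with S. fuliginea conidia (1.0×10^5 cells/ml); lesion area scored after 14 days in greenhouse. Preventive value vs untreated; ≥60% high, <60% low control.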

Phytophthora infestans = experiment: whole plant or invertebrate; settings: in Solanum lycopersicum, 96 h, read-out: Determination of control effect (preventive value)
[1] = test system: Pseudoperonospora cubensis; experiment: Test of examining control effect on Pseudoperonospora cubensis (potted cucumber plants); settings: 96 h, 10% wettable powder adjusted to 125 ppm, 15 ml/pot sprayed on potted cucumber plants one day before spray inoculation, assessed after 1 day wet chamber and 3 days greenhouse, read-out: Determination of control effect (preventive value) on Pseudoperonospora cubensis
How it was run: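 Cucumber plants (Sagamihanjiro, 2.5-leaf stage) sprayed with 125 ppm compound solution from 10% wettable powder, 15 ml/pot. One day later, spray-inoculated with P. cubensis conidia (1.0×10^4 cells/ml), kept 1 day at 21° C wet, then 3 days in greenhouse. Preventive value derived from lesion area relative to untreated plants.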

Structure (SMILES) | pest or weed control at 125 µg/mL (Sphaerotheca fuliginea) [%] | pest or weed control at 125 ppm (Phytophthora infestans) [%] | pest or weed control at 125 µg/mL [1] [%] | pest or weed control at 125 µg/mL (Sphaerotheca fuliginea; in Cucumis sativus) [%] | pest or weed control at 125 µg/mL ([1]; in Cucumis sativus) [%]
Fc1ccccc1Oc1nc(C#CCCNc2ncnc3ccccc23)cs1 [compound 224] | 60 to 100 | 60 to 100 | 60 to 100 |  | 
CCOC(=O)C(CC#Cc1ccccc1)Nc1ncnc2ccccc12 (stereo not drawn) [compound 303] |  | 0 to 60 |  | 0 to 60 | 60 to 100
C(#Cc1ccsc1)CCNc1ncnc2ccccc12 [compound 205] | 60 to 100 | 60 to 100 | 60 to 100 |  | 
Ic1ccc(C#CCCNc2ncnc3ccccc23)cc1 [compound 98] | 60 to 100 | 0 to 60 | 60 to 100 |  | 
OCC(CC#Cc1ccccc1)Nc1ncnc2ccccc12 (stereo not drawn) [compound 299] | 0 to 60 | 60 to 100 | 60 to 100 |  | 
CCOCc1ccccc1C#CCCNc1ncnc2ccccc12 [compound 153] | 0 to 60 | 60 to 100 | 60 to 100 |  | 
Cc1cccc(C#CCCNc2ncnc3ccccc23)n1 [compound 200] | 60 to 100 | 60 to 100 | 60 to 100 |  | 
CNC(=O)C(CC#Cc1ccccc1)Nc1ncnc2ccccc12 (stereo not drawn) [compound 305] |  | 0 to 60 |  | 0 to 60 | 60 to 100
Clc1cc(C#CCCNc2ncnc3ccccc23)ccn1 [compound 196] | 60 to 100 | 0 to 60 | 60 to 100 |  | 
FC(F)(F)c1ccccc1C#CCCNc1ncnc2ccc(Cl)cc12 [compound 309] | 60 to 100 | 0 to 60 | 60 to 100 |  | 
COCc1ccccc1C#CCCNc1ncnc2cc(C(F)(F)F)ccc12 [compound 324] | 0 to 60 | 0 to 60 | 60 to 100 |  | 
CN(C)S(=O)(=O)c1ccc(C#CCCNc2ncnc3ccccc23)cc1 [compound 122] | 0 to 60 | 0 to 60 | 60 to 100 |  | 
Cc1ncnc(NC(C)CC#Cc2ccc(Cl)cc2C(F)(F)F)c1Br (stereo not drawn) [compound 387] | 60 to 100 | 0 to 60 | 60 to 100 |  | 
COCc1ccccc1C#CCCNc1ncnc2ccc(-c3ccccc3)cc12 [compound 333] | 0 to 60 | 0 to 60 | 60 to 100 |  | 
FC(F)(F)c1cc(Cl)ccc1C#CCCNc1ncnc2ccccc12 [compound 178] | 60 to 100 | 60 to 100 | 60 to 100 |  | 
COCc1ccccc1C#CCCNc1ncnc2c(C(F)(F)F)cccc12 [compound 323] | 60 to 100 | 60 to 100 | 60 to 100 |  | 
CC(CC#Cc1ccc(S(C)(=O)=O)cc1Cl)Nc1ncnc2sccc12 (stereo not drawn) [compound 256] | 60 to 100 | 60 to 100 | 60 to 100 |  | 
CC(CC#Cc1nccs1)Nc1ncnc2sccc12 (stereo not drawn) [compound 265] | 60 to 100 | 60 to 100 | 60 to 100 |  | 
C#CCOCc1nc(C#CCCNc2ncnc3sccc23)cs1 [compound 74] | 60 to 100 | 60 to 100 | 60 to 100 |  | 
FC(F)(F)c1ccc(C#CCCNc2ncnc3ccccc23)c(Cl)c1 [compound 182] | 60 to 100 | 0 to 60 | 60 to 100 |  | 
Cc1cc(C)c(C#CCCNc2ncnc3ccccc23)c(C)c1 [compound 181] | 60 to 100 | 0 to 60 | 60 to 100 |  | 
C(#Cc1ccccc1C1OCCO1)CCNc1ncnc2ccccc12 [compound 155] | 0 to 60 | 0 to 60 | 60 to 100 |  | 
C(#Cc1csc(Cc2ccccc2)n1)CCNc1ncnc2sccc12 [compound 75, 4-[4-(2-Benzylthiazol-4-yl)-3-butynylamino]thieno[2,3-d]pyrimidine] | 60 to 100 | 60 to 100 | 60 to 100 |  | 
CC(CC#Cc1ccccc1C(F)(F)F)Nc1ncnc2ccccc12 (stereo not drawn) [compound 274] | 60 to 100 | 60 to 100 | 60 to 100 |  | 

Structure (SMILES) | pest or weed control at 125 µg/mL (Sphaerotheca fuliginea) [%] | pest or weed control at 125 ppm (Phytophthora infestans) [%] | pest or weed control at 125 µg/mL [1] [%] | pest or weed control at 125 µg/mL (Sphaerotheca fuliginea; in Cucumis sativus) [%] | pest or weed control at 125 µg/mL ([1]; in Cucumis sativus) [%]
CC(C)(C)[Si](C)(C)OCc1nc(C#CCCNc2ncnc3sccc23)cs1 [compound 71] | 60 to 100 | 60 to 100 | 60 to 100 |  | 
COCOCc1ccccc1C#CCCNc1ncnc2ccccc12 [compound 148] | 60 to 100 | 60 to 100 | 60 to 100 |  | 
C(#Cc1ccccc1)CCNc1ncnc2[nH]ccc12 [compound 379] | 60 to 100 | 0 to 60 | 0 to 60 |  | 
C#CCCNc1ncnc2ccccc12 [compound 86] | 60 to 100 | 0 to 60 | 60 to 100 |  | 
COCc1ccccc1C#CCCNc1ncnc2ncccc12 [compound 380] | 60 to 100 | 60 to 100 | 60 to 100 |  | 
OCCc1ccccc1C#CCCNc1ncnc2ccccc12 [compound 158] | 60 to 100 | 0 to 60 | 60 to 100 |  | 
C(#CC1=CCCCC1)CCNc1ncnc2ccccc12 [compound 94] | 60 to 100 | 0 to 60 | 60 to 100 |  | 
COCc1ccccc1C#CCCNc1ncnc2ccc(OCc3ccccc3)cc12 [compound 340] | 0 to 60 | 0 to 60 | 60 to 100 |  | 
CC(F)c1ncnc(NCCC#Cc2ccccc2)c1Br (stereo not drawn) [compound 375] | 60 to 100 | 60 to 100 | 60 to 100 |  | 
COCc1ccccc1C#CCCNc1ncnc2c(F)cccc12 [compound 315] | 60 to 100 | 60 to 100 | 60 to 100 |  | 
Cc1ccc(C#CCCNc2ncnc3ccccc23)c(C)c1 [compound 180] | 60 to 100 | 60 to 100 | 60 to 100 |  | 
CC(CC#Cc1ccc(C(F)(F)F)cc1Cl)Nc1ncnc2ccccc12 (stereo not drawn) [compound 282] | 60 to 100 | 0 to 60 | 60 to 100 |  | 
CC(CC#Cc1ccccc1)Nc1ncnc2sccc12 (stereo not drawn) [compound 229] | 60 to 100 | 0 to 60 | 60 to 100 |  | 
COCc1ccccc1C#CCCNc1ncnc(Cl)c1Br [compound 366] | 60 to 100 | 60 to 100 | 60 to 100 |  | 
Cc1cc(Cl)ccc1C#CCC(C)Nc1ncnc2sccc12 (stereo not drawn) [compound 250] | 60 to 100 | 60 to 100 | 60 to 100 |  | 
COC(C)c1ccccc1C#CCCNc1ncnc2ccccc12 (stereo not drawn) [compound 137] | 60 to 100 | 0 to 60 | 60 to 100 |  | 
FC(F)OCc1ccccc1C#CCCNc1ncnc2ccccc12 [compound 134] | 60 to 100 | 60 to 100 | 60 to 100 |  | 
Fc1ccccc1C#CCCNc1ncnc2sccc12 [compound 11] | 60 to 100 | 60 to 100 | 60 to 100 |  | 
COCc1nc(C#CCCNc2ncnc3sccc23)cs1 [compound 72] | 60 to 100 | 60 to 100 | 60 to 100 |  | 
CC(CC#Cc1ccccc1S(C)(=O)=O)Nc1ncnc2ccccc12 (stereo not drawn) [compound 290] | 60 to 100 | 60 to 100 | 60 to 100 |  | 
COCc1cccc(C#CCCNc2ncnc3ccccc23)c1 [compound 135] | 0 to 60 | 0 to 60 | 60 to 100 |  | 
CC(CC#Cc1ccc(Cl)cc1)Nc1ncnc2ccccc12 (stereo not drawn) [compound 273] | 60 to 100 | 60 to 100 | 60 to 100 |  | 
FC(F)(F)c1ccccc1C#CCCNc1ncnc2c(Cl)cccc12 [compound 307] | 60 to 100 | 0 to 60 | 60 to 100 |  | 
Cc1nc(C#CCC(C)Nc2ncnc3sccc23)cs1 (stereo not drawn) [compound 266] | 60 to 100 | 60 to 100 | 60 to 100 |  | 
